Where no end group is shown, it is not given here.

In experiment [1] the test system is STZ-treated mouse islets. Put plainly: MTT viability of STZ-treated mouse islets. Type of experiment: cell-based. The conditions noted are these: increasing concentrations. The source says:
Yellow dye MTT is converted to a purple dye by mitochondrial reductase in viable cells. Therefore, the amount of purple dye present determined by measuring optical density of cells at 570 nm serves as a measurement of cell viability.

Experiment [2] has as its system β-MIN6 cells. Put plainly: Insulin secretion of β-MIN6 cells following glucose induction. Type of experiment: cell-based, mouse. The conditions noted are these: 1 week treatment; IGF-2 5 nM, 20 nM, 80 nM. From the text: β-MIN6 cells serve as an in vitro model of mouse pancreatic islets. β-MIN6 cells were used as an in vitro model to measure the effects of treatment with IGF-2.

The subject of experiment [3] is STZ-treated mouse islets. Put plainly: Insulin secretion from STZ-treated mouse islets. Type of experiment: cell-based. The conditions noted are these: islets treated with 2.5 mM STZ; 48 hours after treatment; IGF-2 50 nM and 500 nM, GLP-1 100 nM and 1000 nM. The protocol:
Mouse islet cells were treated with 2.5 mM STZ and subsequently treated with either IGF-2 (FA) at 50 nM and 500 nM, or with GLP-1 at 100 nM and 1000 nM.

Experiment [4] deals with mice. Put plainly: Blood glucose concentration kinetics of IGF-2 vs. insulin in a glucose tolerance test. It counts as in vivo, mouse. The conditions noted are these: insulin 1 unit per kg, IGF-2 800 μg/kg. From the text: IGF-2 therefore provides an effect that mimics insulin within the body, and that effect is referred to herein as an “insulinomimetic” effect. […] In this example, administering IGF-2 can provide better results than administering insulin with respect to blood glucose levels, even when only a single dose was used. Without being bound by this theory, it is possible that the IGF-2 combines with a number of binding proteins in the blood and its active free form is then released slowly from the complex.

In the case of “GLP-1 (HAEGTFTSDVSSYLEGQAAKEFIAWLVKGR; ends and bridges not checked; UniProt P01275 98-127, looked up) [a satiety hormone, comparator in vitro, reference compound]”, in experiment [1], the “mouse islet viability (MTT, optical density at 570 nm)” value is listed as “did not significantly increase mouse islet viability”. In addition, the “insulin secretion following glucose induction” value in experiment [2] is on record as “does not increase insulin secretion”. Further, in experiment [3], the insulin secretion entry is “did not significantly increase insulin secretion”.
For the substance insulin [reference compound], the “glucose level after administration” value in experiment [4] (glucose tolerance test in mice) is “the glucose level decreased”. Further, the “time after which the recovery in glucose levels began” value in experiment [4] (single dose) is “after two hours”.

The values are drawn from patent publication US12447198B2, “Peptides and fragments for treating diabetes and associated metabolic diseases” (Betavive Ltd., priority 2021, dated 2025).
